Values quoted from earlier work as cited in US12458674B2, “M13 phage based gene therapy platform” (Massachusetts Institute of Technology, priority 2021, dated 2025).

Details: in vivo

- CSF to plasma ratio: about 20%
SMILES: Cn1nnc2c(C(N)=O)ncn2c1=O [temozolomide]
